pIC50: −log10 of the molar value. Activity calls are given as the source filed them. The rule behind the calls is not given here.
How the values were obtained:
[1] = test system: BXPC-3; test: Induction of apoptosis in human BXPC-3 cells assessed as viable cells at 5 uM incubated for 48 hrs by Annexin V-FITC/PI staining based flow cytometric analysis (reference value: 90.70%); type: functional; conditions: read-out: Activity
[2] = test system: MDA-MB-231; test: Induction of apoptosis in human MDA-MB-231 cells assessed as necrotic cells at 2.5 uM incubated for 48 hrs by Annexin V-FITC/PI staining based flow cytometric analysis (reference value: 0.63%); type: functional
[3] = test system: BXPC-3; test: Induction of apoptosis in human BXPC-3 cells assessed as viable cells at 2.5 uM incubated for 48 hrs by Annexin V-FITC/PI staining based flow cytometric analysis (reference value: 90.70%); type: functional; conditions: read-out: Activity
[4] = test system: BXPC-3; test: Induction of apoptosis in human BXPC-3 cells assessed as late apoptotic cells at 5 uM incubated for 48 hrs by Annexin V-FITC/PI staining based flow cytometric analysis (reference value: 4.38 %); type: functional
[5] = test system: BXPC-3; test: Inhibition of cell proliferation in human BXPC-3 cells assessed as decrease in c-Myc protein level at 5 uM incubated for 48 hrs by IHC analysis; type: functional, cell-based
[6] = biological target: T1, Histone-lysine N-methyltransferase EZH2 (Homo sapiens, UniProt Q15910); test: Inhibition of EZH2 in human BXPC-3 cells assessed as increase in H3K27ac level at 5 uM by fluorescence based analysis; type: cell-based
Target sequence in this assay (Q15910 whole entry, looked up): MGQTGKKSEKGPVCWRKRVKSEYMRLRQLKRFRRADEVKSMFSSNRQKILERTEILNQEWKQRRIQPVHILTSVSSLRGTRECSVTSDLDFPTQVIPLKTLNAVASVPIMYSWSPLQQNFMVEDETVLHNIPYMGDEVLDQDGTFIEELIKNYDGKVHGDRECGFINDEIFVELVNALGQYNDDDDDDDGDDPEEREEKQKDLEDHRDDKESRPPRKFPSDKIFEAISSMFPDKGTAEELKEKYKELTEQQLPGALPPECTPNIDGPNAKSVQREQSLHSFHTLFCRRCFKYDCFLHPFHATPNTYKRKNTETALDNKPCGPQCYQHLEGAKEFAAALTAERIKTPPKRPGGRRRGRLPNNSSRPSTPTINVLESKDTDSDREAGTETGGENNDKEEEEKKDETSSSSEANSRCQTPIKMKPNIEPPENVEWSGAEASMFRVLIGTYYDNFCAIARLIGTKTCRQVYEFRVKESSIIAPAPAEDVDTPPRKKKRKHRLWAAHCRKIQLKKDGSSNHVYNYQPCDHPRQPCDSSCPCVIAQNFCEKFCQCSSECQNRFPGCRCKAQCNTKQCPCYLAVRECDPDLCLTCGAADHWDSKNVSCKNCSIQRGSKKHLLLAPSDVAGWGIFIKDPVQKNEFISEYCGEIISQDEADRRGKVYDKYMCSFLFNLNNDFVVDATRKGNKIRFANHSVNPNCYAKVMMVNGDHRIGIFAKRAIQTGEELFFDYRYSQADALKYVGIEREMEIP

[7] = test system: BXPC-3; test: Antiproliferative activity against human BXPC-3 cells assessed as inhibition of cell proliferation incubated for 6 days by CCK8 assay; type: functional, cell-based; conditions: time 6.0 day
[8] = test system: BXPC-3; test: Induction of apoptosis in human BXPC-3 cells assessed as necrotic cells at 1 uM incubated for 48 hrs by Annexin V-FITC/PI staining based flow cytometric analysis (reference value: 1.65 %); type: functional
[9] = Toxicity in Balb/c nude mouse xenografted with human BXPC-3 cells assessed as effect on body weight at 30 to 60 mg/kg, ip administered daily for 30 days; type: organism-based; conditions: in vivo, 720 h, dose 30-60 mg/kg, time 30 day
[10] = test system: Mus musculus; test: In vivo inhibition of EZH2 in Balb/c nude mouse xenografted with human BXPC-3 cells assessed as reduction in H3K27me3 level in tumor at 60 mg/kg, ip administered daily for 30 days by IHC analysis; type: functional, organism-based; conditions: time 30.0 day
[11] = biological target: Bromodomain-containing protein 3 (Homo sapiens, UniProt Q15059); test: Inhibition of BRD3-BD1/2 (unknown origin) by HTRF analysis
[12] = test system: MDA-MB-231; test: Induction of apoptosis in human MDA-MB-231 cells assessed as necrotic cells at 5 uM incubated for 48 hrs by Annexin V-FITC/PI staining based flow cytometric analysis (reference value: 0.63%); type: functional
[13] = test system: MDA-MB-231; test: Induction of apoptosis in human MDA-MB-231 cells assessed as necrotic cells at 1 uM incubated for 48 hrs by Annexin V-FITC/PI staining based flow cytometric analysis (reference value: 0.63%); type: functional
[14] = Half-life in ICR mouse at 60 mg/kg, ip measured upto 24 hrs by LC-MS/MS analysis; type: ADME, organism-based; conditions: in vivo
[15] = biological target: Bromodomain testis-specific protein (Homo sapiens, UniProt Q58F21); test: Inhibition of BRDT-BD1 (unknown origin) by HTRF analysis
[16] = biological target: T1, Histone-lysine N-methyltransferase EZH2; test: Inhibition of EZH2 (unknown origin) by radiometric assay
Target sequence in this assay (Q15910 whole entry): as the sequence (Q15910 whole entry, looked up) above

[17] = test system: MDA-MB-231; test: Induction of apoptosis in human MDA-MB-231 cells assessed as viable cells at 2.5 uM incubated for 48 hrs by Annexin V-FITC/PI staining based flow cytometric analysis (reference value: 97.63%); type: functional; conditions: read-out: Activity
[18] = biological target: T1, Histone-lysine N-methyltransferase EZH2; test: Inhibition of EZH2 in human MDA-MB-231 cells assessed as increase in H3K27ac level at 5 uM by fluorescence based analysis; type: cell-based
Target sequence in this assay (Q15910 whole entry, looked up): as above

[19] = test system: MDA-MB-231; test: Induction of apoptosis in human MDA-MB-231 cells assessed as late apoptotic cells at 2.5 uM incubated for 48 hrs by Annexin V-FITC/PI staining based flow cytometric analysis (reference value: 1.06%); type: functional
[20] = test system: BXPC-3; test: Antitumor activity against human BXPC-3 cells xenografted in Balb/c nude mouse assessed as reduction in tumor growth at 60 mg/kg, ip administered daily for 30 days; type: functional, organism-based; conditions: time 30.0 day
[21] = test system: MDA-MB-231; test: Inhibition of cell proliferation in human MDA-MB-231 cells assessed as decrease in c-Myc protein level at 5 uM incubated for 48 hrs by IHC analysis; type: functional, cell-based
[22] = biological target: Bromodomain-containing protein 4 (Homo sapiens, UniProt O60885); test: Inhibition of BRD4 (unknown origin) by HTRF analysis
[23] = test system: MDA-MB-231; test: Induction of apoptosis in human MDA-MB-231 cells assessed as late apoptotic cells at 1 uM incubated for 48 hrs by Annexin V-FITC/PI staining based flow cytometric analysis (reference value: 1.06%); type: functional
[24] = test system: MDA-MB-231; test: Induction of cell cycle arrest in human MDA-MB-231 cells assessed as accumulation of cells at G0/G1 phase at 1 to 5 uM incubated for 48 hrs by flow cytometric analysis; type: functional, cell-based; conditions: dose 1-5 µM
[25] = test system: MDA-MB-231; test: Induction of apoptosis in human MDA-MB-231 cells assessed as early apoptotic cells at 1 uM incubated for 48 hrs by Annexin V-FITC/PI staining based flow cytometric analysis (reference value: 0.69%); type: functional
[26] = MRT(0 to t) in ICR mouse at 60 mg/kg, ip measured upto 24 hrs by LC-MS/MS analysis; type: ADME, organism-based; conditions: in vivo
[27] = test system: BXPC-3; test: Induction of cell cycle arrest in human BXPC-3 cells assessed as accumulation of cells at G0/G1 phase at 1 to 5 uM incubated for 48 hrs by flow cytometric analysis; type: functional, cell-based; conditions: dose 1-5 µM
[28] = test system: A549; test: Antiproliferative activity against human A549 cells assessed as inhibition of cell proliferation incubated for 6 days by CCK8 assay; type: functional, cell-based; conditions: time 6.0 day
[29] = test system: MDA-MB-231; test: Induction of apoptosis in human MDA-MB-231 cells assessed as viable cells at 1 uM incubated for 48 hrs by Annexin V-FITC/PI staining based flow cytometric analysis (reference value: 97.63%); type: functional; conditions: read-out: Activity
[30] = test system: BXPC-3; test: Induction of apoptosis in human BXPC-3 cells assessed as necrotic cells at 2.5 uM incubated for 48 hrs by Annexin V-FITC/PI staining based flow cytometric analysis (reference value: 1.65 %); type: functional

Sequence of Bromodomain-containing protein 3 (Q15059 whole entry): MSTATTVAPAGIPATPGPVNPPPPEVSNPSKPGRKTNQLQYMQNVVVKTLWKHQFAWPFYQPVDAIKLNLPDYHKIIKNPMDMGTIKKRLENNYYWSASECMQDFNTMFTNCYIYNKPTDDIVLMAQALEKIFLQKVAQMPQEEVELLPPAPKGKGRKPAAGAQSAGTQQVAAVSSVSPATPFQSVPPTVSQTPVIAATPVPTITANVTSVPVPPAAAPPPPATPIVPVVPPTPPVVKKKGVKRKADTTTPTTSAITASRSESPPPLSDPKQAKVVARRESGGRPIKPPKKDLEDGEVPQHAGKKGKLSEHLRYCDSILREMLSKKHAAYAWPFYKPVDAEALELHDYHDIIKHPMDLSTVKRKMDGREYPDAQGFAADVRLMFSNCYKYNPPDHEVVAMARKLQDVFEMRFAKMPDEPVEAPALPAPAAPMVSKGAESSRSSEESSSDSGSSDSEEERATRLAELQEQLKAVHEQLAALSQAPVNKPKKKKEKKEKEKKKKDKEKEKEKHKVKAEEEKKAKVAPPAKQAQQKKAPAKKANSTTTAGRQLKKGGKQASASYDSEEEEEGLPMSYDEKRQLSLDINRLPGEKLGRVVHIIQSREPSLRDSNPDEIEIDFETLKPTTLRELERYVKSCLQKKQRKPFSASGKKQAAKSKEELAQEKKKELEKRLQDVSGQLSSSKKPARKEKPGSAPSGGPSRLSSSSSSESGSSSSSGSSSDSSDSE

inhibition [6]: Active
pIC50 [11]: 7.49
half-life [14]: 13.6 h
pIC50 [15]: 7.46
pIC50 [16]: 8.64
inhibition [18]: Active
pIC50 [22]: 6.83
MRT last at 24 h [26]: 2.55 h
SMILES: CCC(C)n1ccc2c(C(=O)NCc3c(C)cc(C)[nH]c3=O)cc(-c3cn(C)c(=O)c4[nH]ccc34)cc21 (stereo not given)
viability at 5 µM [1]: 62.1%
Activity [2]: 1.38%
viability at 2.5 µM [3]: 71%
Activity [4]: 23.83%
inhibition [5]: Active
Activity [7]: Active
Activity [8]: 2.94%
Activity [9]: Non-Toxic
inhibition [10]: Active
Activity [12]: 1.91%
Activity [13]: 0.87%
viability at 2.5 µM [17]: 87.8%
Activity [19]: 2.29%
Activity [20]: Active
inhibition [21]: Active
Activity [23]: 1.36%
Activity [24]: Active
Activity [25]: 2.87%
Activity [27]: Active
Activity [28]: Active
viability at 1 µM [29]: 94.8%
Activity [30]: 2.86%
